Key:
[1] = biological target: T1, Mcl-1 (myeloid cell leukemia 1) (Homo sapiens, UniProt Q07820); assay: surface plasmon resonance (SPR), reference Mcl-1 inhibitor (Supplementary Fig. S2); type: binding
T1 construct: gene MCL1

[2] = biological target: T1, Mcl-1 (myeloid cell leukemia 1); assay: surface plasmon resonance (SPR); type: binding

T1 sequence (Q07820 whole entry): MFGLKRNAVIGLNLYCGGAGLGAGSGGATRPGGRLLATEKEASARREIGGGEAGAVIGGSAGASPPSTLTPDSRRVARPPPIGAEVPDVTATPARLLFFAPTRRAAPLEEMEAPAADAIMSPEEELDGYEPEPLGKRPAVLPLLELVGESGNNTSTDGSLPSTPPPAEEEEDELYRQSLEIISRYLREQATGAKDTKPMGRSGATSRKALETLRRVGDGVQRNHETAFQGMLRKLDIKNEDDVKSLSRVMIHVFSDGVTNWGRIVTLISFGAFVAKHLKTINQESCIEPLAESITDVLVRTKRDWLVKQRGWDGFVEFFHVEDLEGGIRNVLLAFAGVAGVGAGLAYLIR

Kd [2]	SMILES	Kd [1]
–	Cc1cc2c(C(C)C)c(O)c(O)c(C=O)c2c(O)c1-c1c(C)cc2c(C(C)C)c(O)c(O)c(C=O)c2c1O [AT101]	9.48 µM
3.91 µM	O=C(O)C[C@H](O)C[C@H](O)/C=C/c1c(C2CC2)nc2ccccc2c1-c1ccc(F)cc1 [PITA, Pitavastatin]	–
